Measurements from patent publication US4312883A, “Furocoumarin for the photochemotherapy of psoriasis and related skin diseases” (Consiglio Nazionale delle Ricerche, priority 1979, dated 1982).
“Also recorded” adds a separate entry of the source. Like-named read-outs stand apart in the source and are kept apart here.

Assays:
[1] = Table I; cited from earlier work
[2] = known furocoumarins, Table I; cited from earlier work
[3] = test system: normal human and guinea pig skin; conditions: in vivo; cited from earlier work
[4] = test system: E. coli wild type strain; conditions: E. coli wild type strains; cited from earlier work
[5] = test system: DNA synthesis; conditions: Table I; cited from earlier work
[6] = test system: DNA; conditions: cited from earlier work; for Photobinding capacity to DNA: known furocoumarins
[7] = test system: DNA; experiment: Photobinding to DNA, rate constants of the photoreactions; type: biochemical
Excerpt: (b) Determined according to F. Dall'Acqua, S. Marciani, F. Zambon and G.
Rodighiero, Photochem. Photobiol., 29,489(1979).
Photobinding capacity to DNA: The introduction of one or two methyl groups in the molecule of angelicin leads to a strong increase of the photobinding to DNA; see Table II. […] Photobiol., 29, 489 (1979).

[8] = test system: E. coli WP2 trp^- uvrA^-; conditions: cited from earlier work
[9] = test system: skin; experiment: Relative skin phototoxicity; conditions: (psr = 100)
[10] = test system: DNA; experiment: Capacity to form inter-strand cross-linkages in DNA; type: biochemical; conditions: (psr = 100)
Protocol: All these compounds were not suitable to photoinduce in DNA inter-strand cross-linkages. […] These tests were carried out according to the method of F. Bordin et al., Photochem. Photobiol., 29,1063 (1979).

[11] = test system: psoriasis; experiment: Topical photochemotherapy of psoriasis in patients; type: in vivo, human; conditions: topical 0.1% w/v + UV-A
Excerpt: Clinical data: The effectiveness of certain representative alkylangelicins according to the present invention, specifically 5-methylangelicin, 4,5'-dimethylangelicin, 4'-hydroxymethyl-4,5'-dimethylangelicin, 4'-hydroxymethyl-4,5'-dimethylangelicin and 4,5-dimethylangelicin, has been tested by measuring their capacity to resolve psoriasis in various patients. For a direct comparison the efficacy of the parent unsubstituted angelicin and that of three very effective linear furocoumarins, that is 8-methoxypsoralen (8-MOP), 5-methoxypsoralen (5-MOP), and 4,5',8-trimethylpsoralen (TMP) were also tested.
In each treatment four areas of the affected skin were used;
(a) In the first area an alcohol lotion, containing 10% glycerine, of the tested compound (0.1% w/v) was applied until a concentration of […] was reached then left to evaporate by the heat of the body. After half an hour the area was irradiated with high intensity UV-A emitting low pressure mercury fluorescent lamps with a wavelength of 320-400 nm. The irradiation doses were selected in the range of 4.5-13 J/cm^2 for each application as a function of the sensitivity of the skin of the patients; when the skin sensitivity was higher, the light doses were lower and vice versa.
(b) A second area was treated with an alcohol solution of the drug as in (a) but it was covered and maintained in the dark.
(c) A third area, where the drug was not applied, was irradiated as in (a) but in general with higher UV-A doses.
(d) A fourth area was not treated at all, neither with the drug, not with UV-A.
The treatment with the alkylangenlicins referred to above was repeated 5 time a week for two or more weeks; the total number of treatments was between 8 and 20 per subject. In some cases, as for instance with 5-methylangelicin, a good clearing of psoriasis was observed after 8 treatments.
In order to avoid induction of photosensitization processes such as redness and erythema in the reference tests made with the linear furocoumarins 8-MOP, 5-MOP, TMP, lower light doses were used than in the case of alkylangelicins, the treatments were repeated at a frequency of no more than three times a week.

[12] = test system: melamin pigmentation; conditions: Table I; cited from earlier work
[13] = test system: epidermal DNA synthesis; experiment: Inhibition of the synthesis of epidermal DNA of the mouse in vivo after oral administration and UV-A irradiation; conditions: oral 0.25 g/Kg, UV-A 9 J/cm^2 after two hours
Excerpt: Considering that the topical skin tests carried out on mice to evaluate the effectiveness of these substances has yielded data which correlate well with the clinical data, such a test conveniently modified has been adopted to evaluate the effectiveness of the alkylangelicins after oral administration followed by UV-A irradiation.
In this connection experiments have been conducted using mice 20±2 g in weight, that were starved for three hours before oral administration of the alkylangelicins. Groups of 5 mice were fed a suspension of 0.5% methylcellulose in water containing the alkylangelicins of the invention at a dosage of 0.25 g/Kg. The animals were kept in the dark for two hours, that is for the time necessary for absorption, systemic distribution and localization of the drug at the level of the skin. The animals were then irradiated with UV-A light, 9 J/cm^2. Later the animals were sacrificed and the inhibition of the epidermal DNA synthesis was tested; the results obtained are reported in Table VI. The skin on the back, protected from light by a dark paper, was assumed as a control. As a reference 8-MOP, used under the same experimental conditions, was also tested. The significant activity of the alkylangelicins according to the present invention, higher than that of 8-MOP, in inhibiting the epidermal DNA synthesis in mice upon oral administration allows one to consider these compounds as also being effective for oral administration to humans for photochemotherapy of psoriasis and of other skin diseases that are characterized by cellular hyperproliferation.

[14] = test system: epidermal DNA synthesis; experiment: Inhibition of epidermal DNA synthesis in the mouse in vivo after topical application and UV-A irradiation; conditions: light or radiation study, 0.01% methanol solutions, UV-A 9 J/cm^2, read-out: Percent inhibition ± standard error of epidermal DNA synthesis
Protocol: DNA samples were dissolved in water and their specific radioactivity determined.
Each drug substance was studied using at least six mice.

[15] = test system: DNA; experiment: Dark complex formation (intercalation) with DNA in the ground state, binding parameters; parameters: K (association constants) of the complexes with DNA: unit not given here
Excerpt: Dark complex formation: It is known from F. Dall'Acqua, et al. Chem.-Biol. Interactions 21,103 (1978) that the intercalated complex formed by furocoumarins with DNA strongly affects the successive photoaddition increasing the rate of photobinding. […] These parameters have been determined according to the method of McChee and Von Hippel, J.Mol.Biol, 86, 469 (1974).
(a) Determined according to Mc Ghee and Von Hippel, J. Mol. Biol.,

For `O=c1ccc2ccc3occc3c2o1` [angelicin, reference compound], the Mutagenicity [1] is given as “weak”, the Photosensitizing activity [2] is given as “absent” and the “erythema or hyperpigmentation on the skin” value [3] is given as “does not provoke either erythema or hyperpigmentation on the skin”. The “mutagenic activity / mutation frequency, wild type” value [4] was “not detectable”, the “DNA synthesis inhibiting property” value [5] was “weak” and the DNA intercalation property ([6]; Table I) was “evident”. For the same compound, the “Interstrand cross-linking induction in DNA” value ([6]; Table I) was “absent”, the Monoadduct forming property ([6]; Table I) was “weak” and the “Photobinding capacity to DNA” value [6] was “low capacity of photobinding to DNA; also recorded: low photobinding capacity towards DNA”. The “Photobinding capacity to DNA” value ([6]; listed as Angelicin) was “weak”, the “Rate constants of the photoreactions with DNA” value ([7]; in vitro, UV-A irradiated) was 1.1 K × 10^-2 × min^-1 and the “Rate constants of the photoreactions with DNA, relative” value ([7]; relative (ang = 100)) was 100. The “mutagenic activity, strains deficient in known repair functions” value [8] was “Only very low mutagenic activity”, the Relative skin phototoxicity [9] was 0 and the “capacity to form interstrand cross-linkages” value [10] was 0. The “No. of patients with Excellent result” value ([11]; Excellent = 90% clearance) was 0 patients, the “No. of patients with Fair result” value ([11]; Fair = 50-70%) was 0 patients and the “No. of patients with Good result” value ([11]; Good = 70-90%) was 0 patients. The “No. of patients with Poor result” value ([11]; Poor 40%) was 8 patients, the “Stimulation of melamin pigmentation” value [12] was “absent” and the “Percent inhibition ± standard error of epidermal DNA synthesis” value [13] was 28 ± 2%. For the same compound, the inhibition in vivo at 0.01 % [14] was 17.5 ± 2.5%, the “K (association constants) of the complexes with DNA” value ([15]; in vitro, ground state, McGhee and Von Hippel method) was 560 and the “1/n (frequency of binding sites)” value ([15]; in vitro, ground state, molecules bound per nucleotide) was 0.063. The “1/n (frequency of binding sites), relative” value ([15]; relative (ang = 100)) was 100 and the “K (association constants), relative” value ([15]; relative (ang = 100)) was 100.
